Results as given in US7119102B2, “Substituted 3-amino-thieno[2,3-b]pyridine-2-carboxylic acid amide compounds and processes for preparing and their uses” (Boehringer Ingelheim Pharmaceuticals, Inc., priority 2003, dated 2006).

Structure (SMILES) | melting point
NC(=O)c1sc2nc(N3CCC(NCC(O)c4ccc5ccccc5n4)CC3)cc(C(F)(F)F)c2c1N (centres unmarked) [Example 10, 3-Amino-6-[4-(2-hydroxy-2-quinolin-2-yl-ethylamino)-piperidin-1-yl]-4-trifluoromethyl-thieno[2,3-b]pyridine-2-carboxylic acid amide] | 198 to 201 °C
CCCc1cc(N2CCC(NCC(O)c3cc4ccccc4cn3)CC2)nc2sc(C(N)=O)c(N)c12 (centres unmarked) [Example 11, 3-Amino-6-[4-(2-hydroxy-2-isoquinolin-3-yl-ethylamino)-piperidin-1-yl]-4-propyl-thieno[2,3-b]pyridine-2-carboxylic acid amide] | 213 to 215 °C (dec.)
CCCc1cc(N2CCC(NCC(O)c3cnc4ccccc4c3)CC2)nc2sc(C(N)=O)c(N)c12 (centres unmarked) [Example 8, 3-Amino-6-[4-(2-hydroxy-2-quinolin-3-yl-ethylamino)-piperidin-1-yl]-4-propyl-thieno[2,3-b]pyridine-2-carboxylic acid amide] | 213 to 216 °C

The next lines start with the values.

melting point | Structure (SMILES)
165 to 167 °C | NC(=O)c1sc2nc(N3CCC(NC[C@@H](O)c4ccccn4)CC3)cc(C(F)(F)F)c2c1N [Example 22, 3-Amino-6-[4-((R)-2-hydroxy-2-pyridin-2-yl-ethylamino)-piperidin-1-yl]-4-trifluoromethyl-thieno[2,3-b]pyridine-2-carboxylic acid amide]
179 to 181 °C | NC(=O)c1sc2nc(N3CCC(NCC(O)c4cccnc4)CC3)cc(C(F)(F)F)c2c1N (centres unmarked) [Example 9, 3-Amino-6-[4-(2-hydroxy-2-pyridin-3-yl-ethylamino)-piperidin-1-yl]-4-trifluoromethyl-thieno[2,3-b]pyridine-2-carboxylic acid amide]
